From patent US20080119496A1, “7-Substituted Purine Derivatives for Immunosuppression” (PHARMACOPEIA DRUG DISCOVERY, INC., priority 2006, published 2008)

Assays:
[1] = tested on: IL-2-induced IFN-γ production; assay: IL-2-Induced IFN-γ Production in the Mouse; type: in vivo; conditions: po, 1 h, by gavage one hour before IL-2, serum IFN-γ, female BALB/c mice, read-out: inhibition of IL-2-induced IFN-gamma production
Protocol: Administration of IL-2 leads to an increase in serum IFN-γ in the mouse due to NK secretion of the cytokine (Thornton S, Kuhn K A, Finkelman F D and Hirsch R. NK cells secrete high levels of IFN-γ in response to in vivo administration of IL-2. Eur J Immunol 2001 31:3355-3360). The experiment was carried out essentially according to the protocol in Thornton et al. and the test compounds were administered in order to determine the level of inhibition attained. In summary, female BALB/c mice were fasted for 12-18 hours before a study but had free access to water at all times. Test compounds were administered by gavage one hour before intraperitoneal injection of IL-2 and capture antibody. At termination of the studies, the mice were sacrificed by carbon dioxide inhalation, terminal blood samples were collected by cardiac puncture and serum was generated. Serum was stored frozen until it was assayed for IFN-γ, as described by the kit manufacturer (BD Pharmingen™, San Diego, Calif.).

heart transplantation = conditions: orally active; Changelian, et al., 2003; cited from earlier work
kidney transplantation = conditions: orally active; Changelian, et al., 2003; cited from earlier work
[2] = tested on: spontaneous autoimmune diabetes; conditions: NOD mouse; cited from earlier work
GVHD = conditions: reviewed in Cetkovic-Cvrlje and Ucken, 2004; cited from earlier work

## Cn1c(=O)n([C@@H]2CCOc3c(F)cccc32)c2nc(-n3cnc4ccc(C#N)cc43)ncc21 [Example 505]
[1]
  inhibition at 30 mg/kg: > 40%

## Cn1c(=O)n(C2CCOc3c(F)cc(F)cc32)c2nc(-n3cnc4ccc(C#N)cc43)ncc21 (stereo not shown) [Example 501]
[1]
  inhibition at 30 mg/kg: > 40%

## O=c1[nH]c2cnc(-n3cnc4ccccc43)nc2n1[C@@H]1CCOc2c(F)cccc21 [Example 16, 2-(1H-Benzo[d]imidazol-1-yl)-9-((R)-8-fluorochroman-4-yl)-7H-purin-8(9H)-one]
[1]
  inhibition at 30 mg/kg: > 40%

## C[C@@H]1CCN(C(=O)CC#N)C[C@@H]1N(C)c1ncnc2[nH]ccc12 [CP-690,550]
Heart transplantation
  animal survival / immunosuppression: prolong animal survival
Kidney transplantation
  animal survival / immunosuppression: prolong animal survival

## O=c1[nH]c2cnc(-n3cnc4cc(F)ccc43)nc2n1[C@@H]1CCOc2c(F)cccc21 [Example 28, 2-(5-Fluoro-1H-benzo[d]imidazol-1-yl)-9-((R)-8-fluorochroman-4-yl)-7H-purin-8(9H)-one]
[1]
  inhibition at 30 mg/kg: > 40%

## C[C@@H]1CCN(C(=O)CC#N)C[C@@H]1N(C)c1ncnc2[nH]ccc12 [CP690550]
[1]
  inhibition at 30 mg/kg: 96%

## Cn1c(=O)n(C2CCOc3ccc(F)cc32)c2nc(-n3cnc4ccc(C#N)cc43)ncc21 (stereo not shown) [Example 504]
[1]
  inhibition at 30 mg/kg: > 40%

## COc1cc2ncnc(Nc3ccc(O)cc3)c2cc1OC [JANEX-1]
[2]
  spontaneous autoimmune diabetes development: prevent spontaneous autoimmune diabetes development
GVHD
  severity of GVHD: attenuate the severity of GVHD
